Among the data in US8853234B2, “Quinolone analogs and methods related thereto” (Senhwa Biosciences, Inc., priority 2007, dated 2014) are IC50 values, retold here.

Read-outs that look alike come from different tables or passages of the source. A value given as a limit tells only on which side of the number the result lay.

This assay concerns a variety of cell types that are representative of different cancers. The experiment in a line: Alamar Blue cell viability assay, variety of cell types representative of different cancers (Tables 12-14). It counts as cell-based. The settings on record: Homo sapiens. As for the experimental part:
A representative cell-proliferation assay protocol using Alamar Blue dye (stored at 4° C., use 20 ul per well) is described hereafter.
96-Well Plate Setup and Compound Treatment
a. Split and trypsinize cells.
b. Count cells using hemocytometer.
c. Plate 4,000-5,000 cells per well in 100 μl of medium and seed into a 96-well plate according to the following plate layout. Add cell culture medium only to wells B10 to B12. Wells B1 to B9 have cells but no compound added.
d. Add 100 μl of 2× drug dilution to each well in a concentration shown in the plate layout above. At the same time, add 100 μl of media into the control wells (wells B10 to B12). Total volume is 200 μl/well.
e. Incubate four (4) days at 37° C., 5% CO2 in a humidified incubator.
f. Add 20 μl Alamar Blue reagent to each well.
g. Incubate for four (4) hours at 37° C., 5% CO2 in a humidified incubator.
h. Record fluorescence at an excitation wavelength of 544 nm and emission wavelength of 590 nm using a microplate reader.
In the assays, cells are cultured with a test compound for approximately four days, the dye then is added to the cells and fluorescence of […] dye is detected after approximately four hours. Different types of cells can be utilized in the assays (e.g., HCT-116 human colorectal carcinoma cells, PC-3 human prostatic cancer cells and MiaPaca human pancreatic carcinoma cells). Anti-proliferative effects of representative compounds are provided hereafter.
Inhibitory activity on cell proliferation of Compounds A1, A2 and A3 was determined using an Alamar Blue cell viability assay (e.g., Example 39 herein) using a variety of cell types that are representative of different cancers Inhibition values (IC50) are presented in micromolar concentrations in the following table (Table 12).
Inhibitory activity on cell proliferation of representative compounds of the invention was determined using an Alamar Blue cell viability assay (e.g., Example 39 herein) using a variety of cell types that are representative of different cancers Inhibition values (IC50) are presented in micromolar concentrations in Table 13 and Table 14.
In general terms: Alamar Blue is a resazurin reagent that responds to reducing activity.

Setting [1] is: HCT-116, HCT-116 cells, Table 13, read-out: AB: HCT-116 (IC50).
The mark [2] stands for this setting: PC-3, PC3 cells, Table 13, read-out: AB: PC3 (IC50).
The mark [3] stands for this setting: K562, K-562 cells, Table 14, read-out: AB: K-562 (IC50).
[4] abbreviates: MIA PaCa-2, MiaPaCa cells, Table 14, read-out: AB: MiaPaCa (IC50).
The mark [5] stands for this setting: MV4-11, MV-4-11 cells, Table 14, read-out: AB: MV-4-11 (IC50).
The mark [6] stands for this setting: PC-3, PC3 cells, Table 14, read-out: AB: PC3 (IC50).
[7] abbreviates: THP-1, THP-1 cells, Table 14, read-out: AB: THP-1 (IC50).
[8] abbreviates: K562, K-562 cells, Table 13, read-out: AB: K-562 (IC50).
[9] abbreviates: MV4-11, MV-4-11 cells, Table 13, read-out: AB: MV-4-11 (IC50).

A word on the IC50: it is the concentration needed to halve the response being measured. Take `COCCNC(=O)c1c(=O)c2ccc(NCC(O)c3ccccc3)nc2n2c1sc1ccccc12` (stereo not shown): the half-inhibitory concentration (IC50) turned out to be 133 nM under setting [1] and 3740 nM under setting [2].

For the compound `CN1CCCN(c2nc3c(cc2F)c(=O)c(C(=O)NCc2ccccn2)c2sc4ccccc4n23)CC1`, the 50% inhibitory concentration (IC50) reads like this: under setting [3], 118 nM; under setting [4], 941 nM; under setting [5], 43 nM; under setting [6], 7770 nM; under setting [7], 1330 nM.

With `CN1CCCN(c2nc3c(cc2F)c(=O)c(C(=O)N2CCOCC2)c2sc4ccccc4n23)CC1`, the IC50 under setting [3] was 110 nM; the IC50 under setting [4] came to 352 nM; the IC50 under setting [5] is below 30 nM; the IC50 under setting [6] amounted to 1210 nM; the IC50 under setting [7] was 590 nM.

As for `CN1CCCN(c2nc3c(cc2F)c(=O)c(C(=O)NCc2cccnc2)c2sc4ccccc4n23)CC1`, the half-maximal inhibitory concentration (IC50) is 32 nM under setting [3]; 133 nM under setting [4]; below 30 nM under setting [5]; 2480 nM under setting [6]; 356 nM under setting [7].

For the compound `CN1CCCCC1CNC(=O)c1c(=O)c2ccc(NCC(O)c3ccccc3)nc2n2c1sc1ccccc12` (stereo not shown), the IC50 under setting [1] is 267 nM and the half-inhibitory concentration (IC50) under setting [2] was 633 nM.

On to `O=C(NC1CC1)c1c(=O)c2ccc(NCC(O)c3ccccc3)nc2n2c1sc1ccccc12` (stereo not shown), for which the 50% inhibitory concentration (IC50) is above 10000 nM under setting [1], above 10000 nM under setting [8], above 10000 nM under setting [9] and above 10000 nM under setting [2].

Turning to `Cc1cnc(CNC(=O)c2c(=O)c3ccc(N4CCCNCC4)nc3n3c2sc2ccccc23)cn1`, the IC50 under setting [3] was 101 nM, the concentration for half-maximal inhibition (IC50) under setting [4] amounted to 637 nM and the IC50 under setting [5] is 84 nM.

For the compound `CN1CCCN(c2nc3c(cc2F)c(=O)c(C(=O)NN2CCOCC2)c2sc4ccccc4n23)CC1`, the IC50 amounted to 267 nM under setting [3]; 359 nM under setting [4]; 124 nM under setting [5]; 1800 nM under setting [6]; 1320 nM under setting [7].

`CN1CCCN(c2nc3c(cc2F)c(=O)c(C(=O)NCc2ccncc2)c2sc4ccccc4n23)CC1`: the IC50 by setting is: under setting [3], 95 nM; under setting [4], 131 nM; under setting [5], below 30 nM; under setting [6], 6590 nM; under setting [7], 1060 nM.

Turning to `O=C(NCC1CC1)c1c(=O)c2ccc(NCC(O)c3ccccc3)nc2n2c1sc1ccccc12` (stereo not shown), the IC50 is, setting by setting: under setting [1], above 10000 nM; under setting [8], above 10000 nM; under setting [9], 5030 nM; under setting [2], 6080 nM.

For `CN1CCN(C(=O)c2c(=O)c3ccc(NCC(O)c4ccccc4)nc3n3c2sc2ccccc23)CC1` (stereo not shown), the IC50 under setting [1] was determined as 2510 nM, the IC50 under setting [8] was 3130 nM, the IC50 under setting [9] turned out to be 543 nM and the IC50 under setting [2] amounted to 6670 nM.

On to `CN1CCCN(c2nc3c(cc2F)c(=O)c(C(=O)NCCCO)c2sc4ccccc4n23)CC1`, for which the IC50 is 51 nM under setting [3]; below 120 nM under setting [4]; 32 nM under setting [5]; 2640 nM under setting [6]; 571 nM under setting [7].
